From patent publication US20220193095A9, “PHARMACEUTICAL COMPOSITIONS” (Shenzhen Pharmacin Co., Ltd., priority 2019, published 2022)

Key:
[1] = Solubility of abiraterone acetate in surfactants
[2] = Solubility of abiraterone acetate in other media
[3] = Solubility of abiraterone acetate in co-solvents
[4] = Solubility of abiraterone acetate in fatty acids; details: 25° C.
[5] = cited from earlier work
[6] = Solubility of abiraterone acetate in aqueous media
[7] = Solubility of abiraterone acetate in lipids (glycerides); details: 25° C.
[8] = cited from earlier work; remark: listed apart in the source

## CC(=O)O[C@H]1CC[C@@]2(C)C(=CC[C@@H]3[C@@H]2CC[C@]2(C)C(c4cccnc4)=CC[C@@H]32)C1 [Abiraterone acetate]
[1]; Labrasol, 25° C.
  Solubility: 35.4 mg/mL
[1]; Polyethylene Glycol Oleate, 25° C.
  Solubility: 52.7 mg/mL
[1]; Polyoxyethylene 8 stearate, 25° C.
  Solubility: 18.1 mg/mL
[1]; Polyoxyethylene hydrogenated castor oil, 25° C.
  Solubility: 10.1 mg/mL
[1]; Tween 80, 25° C.
  Solubility: 7.5 mg/mL
[2]; 1-octanol, 25° C.
  Solubility: 114.0 mg/mL
[2]; Azone (Laurocapram), 25° C.
  Solubility: 66.0 mg/mL
[2]; Capryl monoglyceride, 25° C. (Table 11)
  Solubility: 139.8 mg/mL
[2]; Glycerol mono/di-caprylocaprate, 25° C. (Table 11)
  Solubility: 147.0 mg/mL
[2]; Glyceryl monooleate, 25° C. (Table 11)
  Solubility: 37.1 mg/mL
[2]; Isopropyl myristate, 25° C. (Table 11)
  Solubility: 41.0 mg/mL
[2]; Polyglycerol fatty acid ester, 25° C. (Table 11)
  Solubility: 10.0 mg/mL
[2]; Propylene Glycol Monocaprylate, 25° C. (Table 11)
  Solubility: 160.0 mg/mL
[3]; Ethanol, 25° C.
  Solubility: 61.1 mg/mL
[3]; Glycerol, 25° C.
  Solubility: 5.0 mg/mL
[3]; PEG400, 25° C.
  Solubility: 16.5 mg/mL
[3]; Propylene glycol, 25° C.
  Solubility: 5.0 mg/mL
[3]; Transcutol, 25° C.
  Solubility: 99.5 mg/mL
[4]; Acetic acid
  Solubility: 2386.1 mg/mL
[4]; Butyric acid
  Solubility: 1399.3 mg/mL
[4]; Heptanoic acid
  Solubility: 1325.9 mg/mL
[4]; Linoleic acid
  Solubility: 182.9 mg/mL
[4]; Nonanoic acid
  Solubility: 1084.1 mg/mL
[4]; Oleic acid
  Solubility: 239.0 mg/mL
[4]; Propionic acid
  Solubility: 2209.5 mg/mL
[4]; Valeric acid
  Solubility: 1104.8 mg/mL
[4]; n-caproic acid
  Solubility: 1572.6 mg/mL
[4]; n-caprylic acid
  Solubility: 1214.7 mg/mL
[5]
  Log P: 5.12
[6]; FDA Dissolution medium: 0.25% SLS in 56.5 mM phosphate buffer, pH 4.5, 25° C.
  Solubility: 0.7 mg/mL
[6]; pH 3.0 buffer, 25° C.
  Solubility: <0.001 mg/mL
[6]; pH 4.0 buffer, 25° C.
  Solubility: <0.001 mg/mL
[6]; pH 5.0 buffer, 25° C.
  Solubility: <0.001 mg/mL
[6]; pH 6.0 buffer, 25° C.
  Solubility: <0.001 mg/mL
[6]; pH 7.4 buffer, 25° C.
  Solubility: <0.001 mg/mL
[7]; Capryl monoglyceride
  Solubility: 139.8 mg/mL
[7]; Castor oil
  Solubility: 59.6 mg/mL
[7]; Coconut oil
  Solubility: 30.6 mg/mL
[7]; Corn oil
  Solubility: 31.4 mg/mL
[7]; Glycerol mono/di-caprylocaprate
  Solubility: 147.0 mg/mL
[7]; Glyceryl monooleate
  Solubility: 37.1 mg/mL
[7]; Isopropyl myristate
  Solubility: 41.0 mg/mL
[7]; Olive oil
  Solubility: 27.3 mg/mL
[7]; Polyglycerol fatty acid ester
  Solubility: 10.0 mg/mL
[7]; Propylene Glycol Monocaprylate
  Solubility: 160.0 mg/mL
[7]; Soybean oil
  Solubility: 28.1 mg/mL
[8]
  solubility in water: practically insoluble in water
